From patent publication US7235584B2, “Non-psychotropic cannabinoids” (Pharmos Corporation, priority 2000, dated 2007)

Experiments:
cannabimimetic activity = conditions: in vivo; cited from earlier work
[1] = test system: T1, nitric oxide synthase (NOS); test: Inhibition of nitric oxide synthase, fluorimetric nitrite assay in LPS-stimulated macrophage supernatants; format: cell-based; conditions: macrophage cell cultures
T1 construct: endogenous in cells
Experimental: As one aspect of the anti-oxidative potential of the novel analogs they were tested for their ability to inhibit the enzyme nitric oxide synthase (NOS). This assay can also serve as another indication of the anti-inflammatory cascade, as well as the anti-oxidative mechanisms.
The final products of NOS are Nitrite (NO2) and Nitrate (NO3). The in vitro fluorimetric assay provides an accurate method for the measurement of the Nitrite, which is the majority of NO products. The principle of the fluorimetric assay is based on the addition of DAN (2,3-diaminonaphthalene) to the aliquots of the supernatants collected from macrophage cell cultures incubated with the new analogs and stimulated with LPS. Following, NaOH was added to convert Nitrite to a fluorescent compound 1(H)-naphthtriazole. The fluorescence was measured immediately in a fluorimeter using excitation wavelength of 365 nm and an emission wavelength of 450 nm.

TNFα = test: Inhibition of TNFα in LPS-activated macrophage cell cultures (ELISA); format: cell-based
Experimental: Specific aspects of the inflammatory response cascade are mediated by the cytokine TNFα. Inhibition of TNFα production and/or inhibition of TNFα release by the new analogs are assayed in macrophage cell cultures activated with LPS. This serves as another indication of the general anti-inflammatory potential of the novel compounds.
The method for macrophage cell culture growth is identical to the one described in PGE2 assay. Aliquots of the supernatants collected following stimulation with LPS were quantitated for TNFα by enzyme linked immunosorbent assay (ELISA) using HRP conjugated to anti-TNFα antibodies and […] for the colorimetric reaction. The peroxidase catalyzed color reaction was stopped by acidification and the absorbance at 450 nm is measured. The absorbance at this wavelength is proportional to the concentration of TNFα in the sample determined from a standard curve plotting the concentrations of TNFα standards versus their absorbance.

NMDA receptor = test: [3H]MK-801 displacement radioligand binding, rat forebrain membranes; conditions: for IC50: displacement of [3H]MK-801, rat forebrain membranes, read-out: NMDA BINDING IC50
Experimental: The identification of possible recognition sites for PRS-211 analogs was carried out by measuring the ability of these PRS-211 analogs to inhibit the binding of MK-801 to rat forebrain membranes.
Brains were removed from Sprague-Dawley rats no more than 5 min after decapitation. Membrane preparations were isolated according to a procedure described previously (Eshhar et al., Brain Res. 476:57, 1989). Prior to radioligand binding measurements, endogenous glutamate present in membranes was removed from the preparation by subjecting the membranes to 3–4 successive washings in 10 mM Tris HCl pH 7.2, performed at 4° C.
The specific binding of the new analogs to NMDA receptors was determined by their ability to displace [^3H]MK-801 from NMDA receptor in rat forebrain preparations. Specifically, rat-forebrain membranes (0.1 mg) were incubated for 2 hours at room temperature with 10 nM of tritiated MK-801 and with the PRS-211 compounds at 3 doses each. Non-specific binding was determined by the use of 0.1 mM MK-801. Following the incubation, bound radioligand was separated from unbound by filtration through GF/B filters. The filters were counted in a β-counter and log of analog concentrations versus % of [^3H]MK-801 specific binding was plotted. The IC50 was calculated from this plot.
Binding of [^3H]MK-801 to membranes was carried out in the presence of 30 μM glycine and 10 μM L-glutamate. Membranes (250 μg protein) were resuspended in 50 mM tris-acetate pH 7.4 buffer and incubated with 10 nM [^3H]MK-801, either alone or in the presence of PRS-211 compounds at 0.1–100 μM concentrations for three hours at room temperature (RT). Reaction buffers used in the different radioligand binding studies contained 10% of an ethanol/Emulphor 620/deionized water mixture. The ratio (by volume) of the respective components in the mixture was 20/3/57. This mixture is required for solubilizing PRS-211 compounds at concentrations above 30 μM. Reaction volume was 1 ml. Non-specific [^3H]MK-801 binding was determined in the presence of 100 μM unlabeled MK-801.
Concentration dependence of certain PRS-211 analogs on inhibition of [^3H]MK-801 binding is illustrated in FIG. 1.

T1 sequence (P35228 whole entry): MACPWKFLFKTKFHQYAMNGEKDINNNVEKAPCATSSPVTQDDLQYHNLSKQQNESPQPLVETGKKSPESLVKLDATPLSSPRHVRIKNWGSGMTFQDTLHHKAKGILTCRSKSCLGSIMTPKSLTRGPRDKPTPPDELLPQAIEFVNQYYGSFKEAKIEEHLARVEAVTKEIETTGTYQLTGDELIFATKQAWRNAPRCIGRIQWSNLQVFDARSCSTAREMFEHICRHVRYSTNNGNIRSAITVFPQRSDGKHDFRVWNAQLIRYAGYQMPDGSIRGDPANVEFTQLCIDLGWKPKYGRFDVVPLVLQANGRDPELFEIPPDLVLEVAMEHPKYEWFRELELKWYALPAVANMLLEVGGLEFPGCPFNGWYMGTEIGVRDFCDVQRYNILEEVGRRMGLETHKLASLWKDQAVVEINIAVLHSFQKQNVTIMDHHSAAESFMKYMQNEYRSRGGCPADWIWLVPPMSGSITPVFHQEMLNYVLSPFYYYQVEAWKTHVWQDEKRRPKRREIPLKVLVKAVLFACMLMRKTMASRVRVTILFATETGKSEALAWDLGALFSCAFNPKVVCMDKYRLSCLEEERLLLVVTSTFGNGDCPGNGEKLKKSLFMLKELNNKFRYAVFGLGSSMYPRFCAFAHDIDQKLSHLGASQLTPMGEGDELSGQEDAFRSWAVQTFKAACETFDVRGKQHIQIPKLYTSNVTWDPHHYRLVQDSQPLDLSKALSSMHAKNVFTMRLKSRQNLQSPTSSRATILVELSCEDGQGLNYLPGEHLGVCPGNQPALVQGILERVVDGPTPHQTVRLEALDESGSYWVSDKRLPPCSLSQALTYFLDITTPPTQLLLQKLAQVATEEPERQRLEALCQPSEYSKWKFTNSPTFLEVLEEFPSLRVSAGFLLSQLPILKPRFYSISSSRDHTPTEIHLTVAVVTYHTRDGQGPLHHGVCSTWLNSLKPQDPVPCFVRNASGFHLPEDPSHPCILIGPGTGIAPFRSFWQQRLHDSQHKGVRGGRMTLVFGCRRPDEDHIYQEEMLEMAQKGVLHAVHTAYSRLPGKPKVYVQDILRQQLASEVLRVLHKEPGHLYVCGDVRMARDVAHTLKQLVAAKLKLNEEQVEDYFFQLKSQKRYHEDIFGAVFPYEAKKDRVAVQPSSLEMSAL

Row | SMILES | cannabimimetic activity relative to Δ-1-tetrahydrocannabinol (cannabimimetic activity) | inhibition at 10 µM [1] | inhibition at 10 µM (TNFα) | NMDA receptor binding / affinity (in words) (NMDA receptor) | IC50 (NMDA receptor)
1 | CCCCCCC(C)(C)c1cc(O)c2c(c1)OC(C)(C)[C@@H]1CC=C(CO)C[C@@H]21 [HU-210] | ~100 times | – | – | – | –
2 | CCCCCCC(C)(C)c1cc(O)c2c(c1)OC(C)(C)[C@H]1CC=C(CN3CCC(C)CC3)CC21 (single isomer, unassigned; (+)) [211,251-000] | – | 37% | 0% | do not exhibit substantial NMDA receptor binding | > 100 µM
3 | CCCCCCC(C)(C)c1cc(O)c2c(c1)OC(C)(C)[C@H]1CC=C(CN3CCC(N4CCCCC4)CC3)CC21 (single isomer, unassigned; (+)) [211,257-000] | – | 39% | 10% | do not exhibit substantial NMDA receptor binding | > 100 µM
